Laboratory results: patent US20250179057A1, “MEK IMMUNE ONCOLOGY INHIBITORS AND THERAPEUTIC USES THEREOF” (Immuneering Corporation, priority 2022, published 2025)
Values after ≈ are worked out from the molar mass of the structure shown. Where a name gives a salt, the structure may show the parent alone. Read-outs that look alike come from different tables or passages of the source.

Legend:
[1] = test system: cynomolgus monkey hepatocytes; test: Hepatocyte stability, cynomolgus monkey; type: in vitro ADME; conditions: 2 μM, 0.5 million cells/ml
Protocol: (§1) In this study, human, cynomolgus monkey, beagle dog, wistar hannover rat, and balb/c mouse hepatocyle stability was determined.

[2] = test system: wistar hannover rat hepatocytes; test: Hepatocyte stability, wistar hannover rat; type: in vitro ADME; conditions: 2 μM, 0.5 million cells/ml
Protocol: as §1

[3] = Plasma stability, beagle dog plasma (K2EDTA); type: in vitro ADME; conditions: 2 μM; for % Remaining at T120 / half-life at 2 μM: beagle dog plasma, anti-coagulant K2-EDTA; for % Remaining at T120: 120 min; for half-life at 2 μM: read-out: T1/2
Protocol: (§2) Individual stock solutions of propantheline and lovastatin were prepared at 10 mM in DMSO and were further diluted to 2 mM with DMSO.
(§3) Frozen matrices (Balb/c mouse, Wistar Han rat, Beagle dog, and human plasma containing K2EDTA as anti-coagulant) were thawed and centrifuged at 3100 rpm for 10 minutes at 4° C. to remove particulates. The lipid layer was then removed, and the supernatant was transferred to a new tube without disturbing the pellet. After the matrices were incubated at 37° C. for at least 10 minutes, the pH of each matrix was adjusted to pH 7.4, using 10% phosphoric acid or 1N sodium hydroxide as necessary. Test and control article stock solutions were spiked (2 μL) into matrix (1.998 mL) and mixed to final assay concentration of […]. Duplicate 30-μL aliquots of spiked plasma were transferred to matrix tubes in 96-well plate immediately after spiking for timepoints of 0, 30, 60, 120, 240, and 360 minutes. These tubes were then incubated at 37° C. with shaking and at each timepoint, the corresponding tubes containing samples were quenched with 180 μL of cold acetonitrile containing the internal standards. The quenched samples were vortex-mixed briefly and stored refrigerated. After the final time point (360 minutes), the plates with all quenched samples were vortex-mixed for 10 minutes and then centrifuged at 3100 rpm for 10 minutes at 4° C. to sediment the precipitated protein. The supernatant (50 μL) was transferred to a clean 96-well plate and diluted with 100 μL of water. The plates were stored refrigerated until analysis.
(§4) Data Analysis: Peak area ratios for IS-normalized test article and control article counts were used to calculate the percent remaining relative to the time zero (T0) value. As appropriate, results were plotted and further analyzed to calculate half-life (T1/2) values.
(§5) Mean peak area ratios were used to calculate the % remaining relative to the T0 value:
(§6) In this study, human, cynomolgus monkey, beagle dog, wistar hannover rat, and balb/c plasma stability was determined. Table 28 describes the results of the human plasma stability at 2 μM concentration and anti-coagulant K2-EDTA from 10 to 120 min. Table 29 describes the results of the cynomolgus monkey plasma stability at 2 μM concentration and anti-coagulant K2-EDTA. Table 30 describes the results of the beagle dog plasma stability at 2 μM concentration and anti-coagulant K2-EDTA. Table 31 describes the results of the wistar hannover rat plasma stability at 2 μM concentration and anti-coagulant K2-EDTA. Table 32 describes the results of the balb/c plasma stability at 2 μM concentration and anti-coagulant K2-EDTA.

[4] = test system: beagle dog hepatocytes; test: Hepatocyte stability, beagle dog; type: in vitro ADME; conditions: 2 μM, 0.5 million cells/ml
Protocol: as §1

[5] = Kinetic solubility (PBS pH 7.4; 4 hr); type: physicochemical; conditions: PBS buffer, kinetic from dmso stock
Protocol: The plates were shaken for 4 h at room temperature in an Eppendorf Thermomixer. After incubation, the plates were centrifuged for 20 minutes at 4680 rpm. From the supernatant, 150 μL was transferred to a new 96 well plate and 50 μL DMSO was added to ensure continued dissolution. Samples were measured on LC-UV at injection volumes of 1 and 8 μL. Peak areas were determined and compared to peak areas obtained using calibration curves of the test compounds in DMSO.

[6] = Plasma stability, cynomolgus monkey plasma (K2-EDTA); type: in vitro ADME; conditions: for % Remaining at T120: 2 μM, anti-coagulant K2-EDTA, 120 min; for half-life at 2 μM: plasma (K2EDTA), pH 7.4, anti-coagulant K2-EDTA
Protocol: as §2, §3, §4, §5, §6

[7] = test system: Caco-2 cells; test: Caco-2 bidirectional permeability (absorption & efflux); conditions: Example 47
[8] = test system: balb/c mouse hepatocytes; test: Hepatocyte stability, balb/c mouse; type: in vitro ADME; conditions: 2 μM, 0.5 million cells/ml
Protocol: as §1

[9] = Hepatocyte stability, balb/c mouse; type: in vitro ADME; conditions: 0.5 million cells/ml; for CLint scaled at 2 μM: BALB/c, mouse, hepatocytes; for half-life at 2 μM: balb/c mouse hepatocytes
Protocol: as §1

[10] = Plasma stability, rat plasma (Wistar Han / wistar hannover; Table 5 head SD Rat); type: in vitro ADME; conditions: wistar hannover rat plasma, 2 μM, anti-coagulant K2-EDTA; for half-life at 2 μM: pH 7.4, read-out: T1/2; for % Remaining at T120: 120 min
Protocol: as §2, §3, §4, §5, §6

[11] = Plasma stability, mouse plasma (Balb/c; Table 5 head CD-1 Mouse); type: in vitro ADME; conditions: balb/c plasma, 2 μM, anti-coagulant K2-EDTA; for % Remaining at T120: 120 min; for half-life at 2 μM: mouse, pH 7.4, read-out: T1/2
Protocol: as §2, §3, §4, §5, §6

[12] = Hepatocyte stability, human; type: in vitro ADME; conditions: 0.5 million cells/ml; for half-life at 2 μM: human hepatocytes, 120 min; for CLint scaled at 2 μM: human, hepatocytes
Protocol: as §1

[13] = target: CYP3A4 (Homo sapiens, UniProt P08684); test: CYP450 panel inhibition in human liver microsomes, 3A4 (midazolam / testosterone); conditions: 10 μM; for CYP-3A4 (Midazolam) mean percentage CYP inhibition: substrate midazolam; for CYP-3A4 (Testosterone) mean percentage CYP inhibition: substrate testosterone
[14] = pH 7.4, aqueous buffer, free base (Table 19), read-out: Kinetic Solubility
[15] = read-out: CLint (L/hr/kg) (converted)

Chain of CYP3A4 (P08684 whole entry): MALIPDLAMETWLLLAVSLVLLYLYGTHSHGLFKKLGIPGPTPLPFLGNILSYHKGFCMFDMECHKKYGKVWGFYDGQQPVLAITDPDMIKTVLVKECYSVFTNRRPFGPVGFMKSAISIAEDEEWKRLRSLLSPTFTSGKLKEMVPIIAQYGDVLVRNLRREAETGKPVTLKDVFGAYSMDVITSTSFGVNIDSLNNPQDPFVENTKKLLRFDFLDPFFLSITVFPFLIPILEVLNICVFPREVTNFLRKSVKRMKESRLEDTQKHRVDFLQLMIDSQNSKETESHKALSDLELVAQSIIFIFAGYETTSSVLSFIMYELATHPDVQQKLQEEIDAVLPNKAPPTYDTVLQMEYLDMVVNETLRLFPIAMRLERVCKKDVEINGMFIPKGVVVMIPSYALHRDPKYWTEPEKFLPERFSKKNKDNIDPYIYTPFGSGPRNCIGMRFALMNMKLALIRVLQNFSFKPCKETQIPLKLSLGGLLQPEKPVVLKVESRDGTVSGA

SMILES	% Remaining At T120 [1] [%]	% Remaining At T120 [2] [%]	% Remaining at T120 [3] [%]	half-life at 2 μM ([3]; pH 7.4) [h]	% Remaining At T120 [4] [%]	solubility kinetic at 4 h [5, 14] [µM]	% Remaining at T120 [6] [%]	half-life at 2 μM [6] [h]	A − B Permeability Ranking [7]	% Remaining At T120 [8] [%]	CLint scaled at 2 μM [9, 15] [L/h/kg]	CLint scaled at 2 μM ([9]; read-out: CLint (mL/min/kg)) [L/h/kg]	half-life at 2 μM [9] [h]	half-life at 2 μM [10] [h]	% Remaining at T120 [10] [%]	% Remaining at T120 [11] [%]	half-life at 2 μM [11] [h]	half-life at 2 μM [12] [h]	CLint scaled at 2 μM [12, 15] [L/h/kg]	CLint scaled at 2 μM ([12]; read-out: CLint (mL/min/kg)) [L/h/kg]	further results
CCN(C)Cc1c(Cc2cccc(NS(=O)(=O)NC)c2F)c(=O)oc2cc(OC(=O)N(C)C)c(F)cc12 [Compound 238]	23.3	23.0	93.8	23.2	31.1	40 (≈ 21.5 µg/mL)	101.1	> 2	Higher	57.3	6.57	6.6	2.48	29.8	95.5	57.5	2.67	1.07	3.51	3.5	
CCN(C)Cc1c(Cc2cccc(NS(=O)(=O)NC)c2Cl)c(=O)oc2cc(OC(=O)N(C)C)ccc12 [Compound 245, 3-(2-chloro-3-((N-methylsulfamoyl)amino)benzyl)-4-((ethyl(methyl)amino)methyl)-2-oxo-2H-chromen-7-yl dimethylcarbamate]	3.3	15.7	104.1	> 2	23.4	28 (≈ 15 µg/mL)	96.5	23	Higher	52.8	7.54	7.56	2.17	32.2	96.6	81.9	7.98	0.703	5.32	5.32	CYP-3A4 (Midazolam) mean percentage CYP inhibition [13]: 42.3%; CYP-3A4 (Testosterone) mean percentage CYP inhibition [13]: 72.8%
CNS(=O)(=O)Nc1cccc(Cc2c(CN3CCNCC3)c3ccc(OC(=O)N(C)C)cc3oc2=O)c1Cl [Compound 246, 3-(2-chloro-3-((N-methylsulfamoyl)amino)benzyl)-2-oxo-4-(piperazin-1-ylmethyl)-2H-chromen-7-yl dimethylcarbamate hydrochloride]	81.4	63.0	100.2	60.5	79.6		104.5	> 2	Higher	73.6	3.62	3.62	4.53	> 2	99.3	94.5	18.5	28.8	0.13	0.13	CYP-3A4 (Testosterone) mean percentage CYP inhibition [13]: 24.6%
CNS(=O)(=O)Nc1cccc(Cc2c(CN3CCNCC3)c3cc(Cl)c(OC(=O)N(C)C)cc3oc2=O)c1Cl [Compound 256, 6-chloro-3-(2-chloro-3-((N-methylsulfamoyl)amino)benzyl)-2-oxo-4-(piperazin-1-ylmethyl)-2H-chromen-7-yl dimethylcarbamate hydrochloride]	53.9	45.7	99.4	> 2	62.8	> 80	95.0	28.5	Higher	65.6	4.98	4.98	3.28	179	97.2	86.8	9.77	15.4	0.242	0.242	CYP-3A4 (Testosterone) mean percentage CYP inhibition [13]: 69.2%
CCS(=O)(=O)Nc1cccc(Cc2c(CN3CCNCC3)c3cc(Cl)c(OC(=O)N(C)C)cc3oc2=O)c1Cl [Compound 257, 6-chloro-3-(2-chloro-3-(ethylsulfonamido)benzyl)-2-oxo-4-(piperazin-1-ylmethyl)-2H-chromen-7-yl dimethylcarbamate hydrochloride]	62.8	45.4	100.9	> 2	47.8	> 80	98.0	20.1	Higher	66.7	4.78	4.78	3.43	16.9	91.5	87.5	9.77	12	0.312	0.313	CYP-3A4 (Testosterone) mean percentage CYP inhibition [13]: 66.0%
CNS(=O)(=O)Nc1cccc(Cc2c(CN(C)C)c3ccc(OC(=O)N(C)C)cc3oc2=O)c1Cl [Compound 274, 3-(2-chloro-3-((N-methylsulfamoyl)amino)benzyl)-4-((dimethylamino)methyl)-2-oxo-2H-chromen-7-yl dimethylcarbamate]	24.5	34.9	100.5	> 2	51.9	78 (≈ 40.8 µg/mL)	104.5	> 2	Higher	64.3	5.23	5.23	3.13	42.3	97.7	92.7	126	1.87	2.01	2.01	CYP-3A4 (Midazolam) mean percentage CYP inhibition [13]: 20.1%; CYP-3A4 (Testosterone) mean percentage CYP inhibition [13]: 50.4%
Cn1cnc2c(F)c(Nc3ccc(Br)cc3Cl)c(C(=O)NOCCO)cc21 [Reference-1, Selumetinib]																					Beagle Dog (% Reamining @2 hour) ([3]; beagle, dog, 2 h, pH 7.4): 100.4%; solubility kinetic at 4 h ([5]; aqueous buffer, PBS pH = 7.4, 4 hr (Table 7), read-out: Kinetic Solubility (PBS pH = 7.4; 4 hr)): 36 µM (≈ 16.5 µg/mL)
CNS(=O)(=O)Nc1nccc(Cc2c(C)c3ccc(Oc4ncccn4)cc3oc2=O)c1F [Reference-2, reference compound]																					Beagle Dog (% Reamining @2 hour) ([3]; plasma, 2 hour): 99.8%
